pIC50: −log10 of the molar value. Several values for one entry are separate records, joined by “and”; a condition that tells them apart may be missing. Equal entries are not always repeated.
Assays:
[1] = system: HeLa cervical adenocarcinoma; assay: Cell Proliferation Inhibition Assay, Hela (C14 method); type: cell-based; settings: Homo sapiens, Table 7
From the text: Cell Proliferation Inhibition Assay
The ability of a test compound to inhibit unregulated cell proliferation may be determined by measuring incorporation of ^14C-labelled thymidine into newly synthesized DNA within cell lines derived from carcinomas originating from several tissues. Accordingly, the effect of a test compound on proliferation of cells with a variety of phenotypes may be determined.
Carcinoma cell lines used include the HeLa cervical adenocarcinoma from the American Type Culture Collection (ATCC Cat. #CCL2), A375 malignant melanoma (ATCC Cat. #CRL-1619), HCT-116 colon carcinoma (ATCC Cat. #CCL-247), SKBR3 breast carcinoma (ATCC Cat. #HTB-30) and BT474 breast carcinoma (ATCC Cat. #HTB-20).
The carcinoma cells were trypsinized and counted. The cells (3000-8000 count) were added to each well of a 96-well CytoStar tissue culture treated scintillating microplate (Amersham #RPNQ0160) in complete medium (100 μL) and the plate was then incubated in complete medium for 24 hrs at 37° C. in an inert atmosphere containing 5% CO2.
Test compound (1 μL) in 100% DMSO was added to the plate test-wells with DMSO only added to control-wells. The plate was incubated in complete medium for a second 24 hr period at 37° C. in an atmosphere containing 5% CO2.
An aliquot of a solution of Methyl ^14C-thymidine (56 mC/mmol) (NEN #NEC568 or AMersham #CFA532) and complete medium (20 uL to provide 0.2 μCl/well) was then added to each well and the plate was incubated for a third 24 hr period at 37° C. in an atmosphere containing 5% CO2.
The plate contents were then discarded, the plate washed twice with PBS (200 μL) and then PBS (200 μL) was added to each well. The plate was sealed and the degree of methyl ^14C-thymidine incorporation was quantified on a Packard Top Count.
Cell proliferation of the Hela cell line was measured using the ATP-Lite method as described in the ATP Lite Kit (Perkin-Elmer Kit Number 6106941) or the C^14 method as described above. Cell proliferation of the other cell lines was measured using the C^14 method.

[2] = molecular target: T1, c-Src kinase (human) (Homo sapiens, UniProt P12931); assay: c-Src Kinase Assay; type: biochemical; settings: for pIC50: read-out: c-Src IC50 (in parentheses); for inhibition at 2 µM / c-Src % Inhibition: test concentration of 2 μM, multiple values are separate assay results; for c-Src % Inhibition: 2 µM
T1 construct: purchased Upstate Biotechnology, Lake Placid, N.Y
T1 sequence (P12931 whole entry): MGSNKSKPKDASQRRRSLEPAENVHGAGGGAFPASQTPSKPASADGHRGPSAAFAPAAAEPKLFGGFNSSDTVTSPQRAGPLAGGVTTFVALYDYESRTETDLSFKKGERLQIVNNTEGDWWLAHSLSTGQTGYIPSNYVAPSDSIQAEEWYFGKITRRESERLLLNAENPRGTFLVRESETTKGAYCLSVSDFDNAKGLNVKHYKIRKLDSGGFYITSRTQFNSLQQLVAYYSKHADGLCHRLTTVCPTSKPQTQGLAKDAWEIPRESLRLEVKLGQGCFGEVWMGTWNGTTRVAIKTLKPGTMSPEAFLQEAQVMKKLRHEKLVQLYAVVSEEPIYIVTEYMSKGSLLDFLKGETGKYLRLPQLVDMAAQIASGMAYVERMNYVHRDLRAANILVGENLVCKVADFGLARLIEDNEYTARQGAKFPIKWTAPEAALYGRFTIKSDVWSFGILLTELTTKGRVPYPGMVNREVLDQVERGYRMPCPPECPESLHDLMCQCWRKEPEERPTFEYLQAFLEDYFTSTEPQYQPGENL
Method in brief: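 Inhibition was read as 33P incorporation, counted on P30 filtermats, after a 40 min, 30° C reaction. Human c-Src acted on 100 μM Cdc2 peptide with 5 μM ATP (final), pH 7.0 MOPS/MgCl2. Values are percent inhibition at 2 μM compound, or IC50 where determined.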

| SMILES | pIC50 [1] | pIC50 [2] | inhibition at 2 µM [2] | c-Src % Inhibition [2] |
| --- | --- | --- | --- | --- |
| O=C(O)c1sc2ncnc3c2c1NC(=O)N3c1ccc2c(ccn2Cc2cccc(F)c2)c1 [Cpd 77, 5-[1-(3-fluoro-benzyl)-1H-indol-5-yl]-4-oxo-4,5-dihydro-3H-1-thia-3,5,6,8-tetraaza-acenaphthylene-2-carboxylic acid] | ≤ 4.00 | < 3.70 | 44% | – |
| CCOC(=O)c1sc2ncnc3c2c1NC(=O)N3c1ccc2c(cnn2Cc2cccc(F)c2)c1 [Cpd 78, 5-[1-(3-fluoro-benzyl)-1H-indazol-5-yl]-4-oxo-4,5-dihydro-3H-1-thia-3,5,6,8-tetraaza-acenaphthylene-2-carboxylic acid ethyl ester] | ≤ 4.00 | < 3.70 | – | – |
| O=C(O)c1sc2ncnc3c2c1NC(=O)N3c1ccc2c(cnn2Cc2cccc(F)c2)c1 [Cpd 79, 5-[1-(3-fluoro-benzyl)-1H-indazol-5-yl]-4-oxo-4,5-dihydro-3H-1-thia-3,5,6,8-tetraaza-acenaphthylene-2-carboxylic acid] | ≤ 4.00 | < 3.70 | -17% | – |
| O=C(Nc1ccc(CN2CCCCC2)cc1)c1sc2ncnc3c2c1NC(=O)N3c1ccc2c(cnn2Cc2cccc(F)c2)c1 [Cpd 80, 5-[1-(3-fluoro-benzyl)-1H-indazol-5-yl]-4-oxo-4,5-dihydro-3H-1-thia-3,5,6,8-tetraaza-acenaphthylene-2-carboxylic acid (4-piperidin-1-ylmethyl-phenyl)-amide] | 5.29 | < 3.70 | – | – |
| O=C(Nc1ccc(CN2CCCCC2)cc1)c1sc2ncnc3c2c1NC(=O)N3c1ccc2c(ccn2Cc2cccc(F)c2)c1 [Cpd 87, 5-[1-(3-fluoro-benzyl)-1H-indol-5-yl]-4-oxo-4,5-dihydro-3H-1-thia-3,5,6,8-tetraaza-acenaphthylene-2-carboxylic acid (4-piperidin-1-ylmethyl-phenyl)-amide] | 5.50 | < 3.70 | – | – |
| CC(C)(C)OC(=O)N1CCC(NC(=O)c2sc3ncnc4c3c2NC(=O)N4c2ccc3c(ccn3Cc3cccc(F)c3)c2)CC1 [Cpd 91, 4-({5-[1-(3-fluoro-benzyl)-1H-indol-5-yl]-4-oxo-4,5-dihydro-3H-1-thia-3,5,6,8-tetraaza-acenaphthylene-2-carbonyl}-amino)-piperidine-1-carboxylic acid tert-butyl ester] | 6.00 | – | -37% | – |
| CN1CCC(NC(=O)c2sc3ncnc4c3c2NC(=O)N4c2ccc3c(ccn3Cc3cccc(F)c3)c2)CC1 [Cpd 92, 5-[1-(3-fluoro-benzyl)-1H-indol-5-yl]-4-oxo-4,5-dihydro-3H-1-thia-3,5,6,8-tetraaza-acenaphthylene-2-carboxylic acid (1-methyl-piperidin-4-yl)-amide] | 5.37 | 6.37 | 65% | 45% |
| O=C(NCCN1CCOCC1)c1sc2ncnc3c2c1NC(=O)N3c1ccc2c(ccn2Cc2cccc(F)c2)c1 [Cpd 93, 5-[1-(3-fluoro-benzyl)-1H-indol-5-yl]-4-oxo-4,5-dihydro-3H-1-thia-3,5,6,8-tetraaza-acenaphthylene-2-carboxylic acid (2-morpholin-4-yl-ethyl)-amide] | ≤ 5.00 | – | 41% | – |
| O=C(Nc1ccc(N2CCOCC2)cc1)c1sc2ncnc3c2c1NC(=O)N3c1ccc2c(ccn2Cc2cccc(F)c2)c1 [Cpd 94, 5-[1-(3-fluoro-benzyl)-1H-indol-5-yl]-4-oxo-4,5-dihydro-3H-1-thia-3,5,6,8-tetraaza-acenaphthylene-2-carboxylic acid (4-morpholin-4-yl-phenyl)-amide] | ≤ 4.00 | – | -39% | – |
| O=C(NCCCN1CCOCC1)c1sc2ncnc3c2c1NC(=O)N3c1ccc2c(ccn2Cc2cccc(F)c2)c1 [Cpd 95, 5-[1-(3-fluoro-benzyl)-1H-indol-5-yl]-4-oxo-4,5-dihydro-3H-1-thia-3,5,6,8-tetraaza-acenaphthylene-2-carboxylic acid (3-morpholin-4-yl-propyl)-amide] | ≤ 5.00 | – | -15% | – |
| CCOC(=O)c1sc2ncnc3c2c1NC(=O)N3c1ccc(C)c(Br)c1 [Cpd 102, 5-(3-bromo-4-methyl-phenyl)-4-oxo-4,5-dihydro-3H-1-thia-3,5,6,8-tetraaza-acenaphthylene-2-carboxylic acid ethyl ester] | ≤ 4.00 | – | – | 3% and 12% |
| CCOC(=O)c1sc2ncnc3c2c1NC(=O)N3c1cc(Br)ccc1C [Cpd 103, 5-(5-bromo-2-methyl-phenyl)-4-oxo-4,5-dihydro-3H-1-thia-3,5,6,8-tetraaza-acenaphthylene-2-carboxylic acid ethyl ester] | ≤ 4.00 | – | 14% | 18% |

The remaining lines, values ahead:

| pIC50 [1] | pIC50 [2] | inhibition at 2 µM [2] | c-Src % Inhibition [2] | SMILES |
| --- | --- | --- | --- | --- |
| ≤ 4.00 | – | 19% | – | Cc1ccc(N2C(=O)Nc3c(C(=O)Nc4ccc(CN5CCOCC5)cc4)sc4ncnc2c34)cc1Br [Cpd 108, 5-(3-bromo-4-methyl-phenyl)-4-oxo-4,5-dihydro-3H-1-thia-3,5,6,8-tetraaza-acenaphthylene-2-carboxylic acid (4-morpholin-4-ylmethyl-phenyl)-amide] |
| ≤ 5.00 | – | 31% | – | Cc1ccc(Br)cc1N1C(=O)Nc2c(C(=O)Nc3ccc(CN4CCOCC4)cc3)sc3ncnc1c23 [Cpd 109, 5-(5-bromo-2-methyl-phenyl)-4-oxo-4,5-dihydro-3H-1-thia-3,5,6,8-tetraaza-acenaphthylene-2-carboxylic acid (4-morpholin-4-ylmethyl-phenyl)-amide] |
| 4.81 | – | 16% | – | O=C(Nc1ccc(CN2CCOCC2)cc1)c1sc2ncnc3c2c1NC(=O)N3c1ccc(Oc2ccc(F)cc2)cc1 [Cpd 110, 5-[4-(4-fluoro-phenoxy)-phenyl]-4-oxo-4,5-dihydro-3H-1-thia-3,5,6,8-tetraaza-acenaphthylene-2-carboxylic acid (4-morpholin-4-ylmethyl-phenyl)-amide] |
| ≤ 5.00 | – | -7% | – | Cc1ccc(N2C(=O)Nc3c(C(=O)NC4CCN(C)CC4)sc4ncnc2c34)cc1Br [Cpd 116, 5-(3-bromo-4-methyl-phenyl)-4-oxo-4,5-dihydro-3H-1-thia-3,5,6,8-tetraaza-acenaphthylene-2-carboxylic acid (1-methyl-piperidin-4-yl)-amide] |
| ≤ 4.00 | – | 25% | – | Cc1ccc(Br)cc1N1C(=O)Nc2c(C(=O)NC3CCN(C)CC3)sc3ncnc1c23 [Cpd 117, 5-(5-bromo-2-methyl-phenyl)-4-oxo-4,5-dihydro-3H-1-thia-3,5,6,8-tetraaza-acenaphthylene-2-carboxylic acid (1-methyl-piperidin-4-yl)-amide] |
| ≤ 5.00 | – | 15% | – | CN1CCC(NC(=O)c2sc3ncnc4c3c2NC(=O)N4c2ccc(Oc3ccc(F)cc3)cc2)CC1 [Cpd 118, 5-[4-(4-fluoro-phenoxy)-phenyl]-4-oxo-4,5-dihydro-3H-1-thia-3,5,6,8-tetraaza-acenaphthylene-2-carboxylic acid (1-methyl-piperidin-4-yl)-amide] |
